From patent publication US12226405B2, “Compounds and compositions for inhibiting the activity of HIF2-alpha and their methods of use” (Novartis AG, priority 2020, dated 2025)

Columns and labels:
[1] = test system: HIF2α-dependent transcription in 786-O-HRE-Luc cells; experiment: In vitro cellular hypoxia response element (HRE) reporter gene assay (RGA) for HIF2α; assay type: cell-based, human; settings: Homo sapiens, 24 hours incubation
Summary of the method: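 Renal carcinoma cells carrying a 4×HRE-driven PEST-destabilised firefly luciferase were treated a day after seeding with eleven 2-fold compound dilutions (0.1% DMSO) for 24 h at 37° C. BrightGlo luminescence, background-subtracted and expressed as % of DMSO control, was fitted four-parametrically for IC50.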

[2] = molecular target: HIF2α PAS-B domain (236-350, biotinylated on the N-terminus) (Homo sapiens (Human), UniProt Q99814)
Method: The assay buffer contained 50 mM Tris-HCl pH7 (Sigma), 20 mM NaCl (Fluka), 0.02% BSA (Sigma), 0.005% Triton X-100 (Pierce) and 1 mM DTT (Fluka). After a 30 min incubation period, 5 μL Streptavidin PVT SPA Beads (Perkin Elmer) at 1.2 mg/mL, diluted in the buffer, were added.

[3] = test system: HIF2α-regulated expression of the endogenous target gene hEGLN3 in 786-O cells; experiment: Cellular iScript assay for HIF2α (quantitative RT-PCR of hEGLN3); assay type: cell-based, human; settings: Homo sapiens, 786-0, 48 hours incubation
Summary of the method: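 786-O cells were exposed to eleven 2-fold compound dilutions for 48 h at 37° C. Lysates underwent one-step TaqMan qRT-PCR for hEGLN3 with beta-actin as reference; 2^(−ΔΔCt) versus DMSO, as % of control, was fit with a four-parameter model to give IC50.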

Chain of HIF2α PAS-B domain (236-350, biotinylated on the N-terminus) (Q99814 236-350): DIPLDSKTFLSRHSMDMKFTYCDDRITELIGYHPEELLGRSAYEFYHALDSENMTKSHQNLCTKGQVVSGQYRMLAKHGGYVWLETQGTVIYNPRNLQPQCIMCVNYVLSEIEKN

Compound	IC50 [1] [nM]	IC50 [2] [nM]	IC50 [3] [nM]
FC(F)OC1=CC(C(F)(F)F)=CN2C[C@@]3(N=C12)c1ccc(I)cc1OC[C@@H]3F [Example 60, (2′S,3R)-8′-(difluoromethoxy)-3-fluoro-7-iodo-6′-(trifluoromethyl)-3′H-spiro[chroman-4,2′-imidazo[1,2-a]pyridine]]	65	6	27
FC(F)OC1=CC(C(F)(F)F)=CN2C[C@@]3(N=C12)c1ccc(C(F)(F)F)cc1OC[C@@H]3F [Example 61, (2′S,3R)-8′-(difluoromethoxy)-3-fluoro-6′,7-bis(trifluoromethyl)-3′H-spiro[chroman-4,2′-imidazo[1,2-a]pyridine]]	143	17	51
Fc1cccc2c1OC[C@H](F)[C@@]21CN2C=C(C(F)(F)F)C=C(OC(F)F)C2=N1 [Example 62, (2′S,3R)-8′-(difluoromethoxy)-3,8-difluoro-6′-(trifluoromethyl)-3′H-spiro[chroman-4,2′-imidazo[1,2-a]pyridine]]	484	13	102
Fc1cccc2c1COC[C@@]21CN2C=C(C(F)(F)F)C=C(OC(F)F)C2=N1 [Example 63, (S)-8-(difluoromethoxy)-8′-fluoro-6-(trifluoromethyl)-3H-spiro[imidazo[1,2-a]pyridine-2,4′-isochroman]]	465	11	197
N#CC1=CN2C[C@@]3(CCSc4c3ccc(Cl)c4F)N=C2C(OC(F)F)=C1 [Example 64, (S)-7′-chloro-8-(difluoromethoxy)-8′-fluoro-3H-spiro[imidazo[1,2-a]pyridine-2,4′-thiochroman]-6-carbonitrile]	236	10	51
Fc1cccc2c1SCC[C@@]21CN2C=C(C(F)(F)F)C=C(OC(F)F)C2=N1 [Example 65, (S)-8-(difluoromethoxy)-8′-fluoro-6-(trifluoromethyl)-3H-spiro[imidazo[1,2-a]pyridine-2,4′-thiochroman]]	114	≤ 3	30
N#CC1=CN2C[C@@]3(CCSc4c(F)cccc43)N=C2C(OC(F)F)=C1 [Example 66, (S)-8-(difluoromethoxy)-8′-fluoro-3H-spiro[imidazo[1,2-a]pyridine-2,4′-thiochroman]-6-carbonitrile]	385	≤ 8	47
Fc1c(C(F)(F)F)ncc2c1SCC[C@@]21CN2C=C(C(F)(F)F)C=C(OC(F)F)C2=N1 [Example 67, (S)-8-(difluoromethoxy)-8′-fluoro-6,7′-bis(trifluoromethyl)-2′,3′-dihydro-3H-spiro[imidazo[1,2-a]pyridine-2,4′-thiopyrano[3,2-c]pyridine]]	107	15	57
Fc1cccc2c1OCCC[C@@]21CN2C=C(C(F)(F)F)C=C(OC(F)F)C2=N1 [Example 69, (S)-8′-(difluoromethoxy)-9-fluoro-6′-(trifluoromethyl)-3,4-dihydro-2H,3′H-spiro[benzo[b]oxepine-5,2′-imidazo[1,2-a]pyridine]]	273	9	44
FC(F)OC1=CC(C(F)(F)F)=CN2C[C@@]3(CCC(F)(F)c4c3ccnc4C(F)F)N=C12 [Example 70, (S)-8-(difluoromethoxy)-1′-(difluoromethyl)-8′,8′-difluoro-6-(trifluoromethyl)-7′,8′-dihydro-3H,6′H-spiro[imidazo[1,2-a]pyridine-2,5′-isoquinoline]]	1670	20	96
N#CC1=CN2C[C@@]3(CCc4cc(I)ccc43)N=C2C(OC(F)F)=C1 [Example 73, (S)-8-(difluoromethoxy)-5′-iodo-2′,3′-dihydro-3H-spiro[imidazo[1,2-a]pyridine-2,1′-indene]-6-carbonitrile]	542	≤ 6	135
Fc1c(C(F)(F)F)ccc2c1CC[C@@]21CN2C=C(C(F)(F)F)C=C(OC(F)F)C2=N1 [Example 74, (S)-8-(difluoromethoxy)-4′-fluoro-5′,6-bis(trifluoromethyl)-2′,3′-dihydro-3H-spiro[imidazo[1,2-a]pyridine-2,1′-indene]]	517	≤ 10	108
COc1ccc2c(c1F)CCC[C@@]21CN2C=C(C(F)(F)F)C=C(F)C2=N1 [Example 76, (S)-5′,8-difluoro-6′-methoxy-6-(trifluoromethyl)-3′,4′-dihydro-2′H,3H-spiro[imidazo[1,2-a]pyridine-2,1′-naphthalene]]	777	49	175
FC1=CC(C(F)(F)F)=CN2C[C@@]3(CCCc4cc(C(F)(F)F)ccc43)N=C12 [Example 77, (S)-8-fluoro-6,6′-bis(trifluoromethyl)-3′,4′-dihydro-2′H,3H-spiro[imidazo[1,2-a]pyridine-2,1′-naphthalene]]	600	≤ 3	103
COC1=CC(C(F)(F)F)=CN2C[C@@]3(CCCc4c3ccc(Br)c4F)N=C12 [Example 80, (S)-6′-bromo-5′-fluoro-8-methoxy-6-(trifluoromethyl)-3′,4′-dihydro-2′H,3H-spiro[imidazo[1,2-a]pyridine-2,1′-naphthalene]]	2040	11	106
Fc1ccc2c(c1Cl)CCC[C@@]21CN2C=C(C(F)(F)F)C=C(OC(F)F)C2=N1 [Example 82, (5)-5′-chloro-8-(difluoromethoxy)-6′-fluoro-6-(trifluoromethyl)-3′,4′-dihydro-2′H,3H-spiro[imidazo[1,2-a]pyridine-2,1′-naphthalene]]	155	≤ 3	39
Fc1c(Br)ccc2c1[C@@H](F)[C@H](F)C[C@@]21CN2C=C(C(F)(F)F)C=C(OC(F)F)C2=N1 [Example 83, (2S,3′R,4′R)-6′-bromo-8-(difluoromethoxy)-3′,4′,5′-trifluoro-6-(trifluoromethyl)-3′,4′-dihydro-2′H,3H-spiro[imidazo[1,2-a]pyridine-2,1′-naphthalene]]	27	9	30
COc1ccc2c(c1F)CCC[C@@]21CN2C=C(C(F)(F)F)C=C(OC(F)F)C2=N1 [Example 84, (S)-8-(difluoromethoxy)-5′-fluoro-6′-methoxy-6-(trifluoromethyl)-3′,4′-dihydro-2′H,3H-spiro[imidazo[1,2-a]pyridine-2,1′-naphthalene]]	184	3	69
Fc1ccc2c(c1F)CCC[C@@]21CN2C=C(C(F)(F)F)C=C(OC(F)F)C2=N1 [Example 85, (S)-8-(difluoromethoxy)-5′,6′-difluoro-6-(trifluoromethyl)-3′,4′-dihydro-2′H,3H-spiro[imidazo[1,2-a]pyridine-2,1′-naphthalene]]	204	4	71
FC(F)OC1=CC(C(F)(F)F)=CN2C[C@@]3(CCCc4cc(C(F)(F)F)ccc43)N=C12 [Example 86, (S)-8-(difluoromethoxy)-6,6′-bis(trifluoromethyl)-3′,4′-dihydro-2′H,3H-spiro[imidazo[1,2-a]pyridine-2,1′-naphthalene]]	179	13	64
FC(F)OC1=CC(C(F)(F)F)=CN2C[C@@]3(CCCc4c(Cl)cccc43)N=C12 [Example 88, (S)-5′-chloro-8-(difluoromethoxy)-6-(trifluoromethyl)-3′,4′-dihydro-2′H,3H-spiro[imidazo[1,2-a]pyridine-2,1′-naphthalene]]	142	≤ 4	32
Fc1c(Br)ccc2c1CCC[C@@]21CN2C=C(Cl)C=C(OC(F)F)C2=N1 [Example 89, (S)-6′-bromo-6-chloro-8-(difluoromethoxy)-5′-fluoro-3′,4′-dihydro-2′H,3H-spiro[imidazo[1,2-a]pyridine-2,1′-naphthalene]]	220	≤ 7	34
N#CC1=CN2C[C@@]3(CCCc4c3ccc(F)c4F)N=C2C(OC(F)F)=C1 [Example 91, (S)-8-(difluoromethoxy)-5′,6′-difluoro-3′,4′-dihydro-2′H,3H-spiro[imidazo[1,2-a]pyridine-2,1′-naphthalene]-6-carbonitrile]	262	5	30
N#CC1=CN2C[C@@]3(CCC(F)(F)c4c3ccc(Br)c4F)N=C2C(OC(F)F)=C1 [Example 92, (S)-6′-bromo-8-(difluoromethoxy)-4′,4′,5′-trifluoro-3′,4′-dihydro-2′H,3H-spiro[imidazo[1,2-a]pyridine-2,1′-naphthalene]-6-carbonitrile]	626	29	153
N#CC1=CN2C[C@@]3(CCCc4c3ccnc4Cl)N=C2C(OC(F)F)=C1 [Example 94, (S)-1′-chloro-8-(difluoromethoxy)-7′,8′-dihydro-3H,6′H-spiro[imidazo[1,2-a]pyridine-2,5′-isoquinoline]-6-carbonitrile]	2260	33	197
FCOC1=CC(C(F)(F)F)=CN2C[C@@]3(CCOc4c(Cl)cccc43)N=C12 [Example 95, (S)-8-chloro-8′-(fluoromethoxy)-6′-(trifluoromethyl)-3′H-spiro[chromane-4,2′-imidazo[1,2-a]pyridine]]	271	23	181
